According to ChEMBL document CHEMBL3853300, “Synthesis of α-santonin derived acetyl santonous acid triazole derivatives and their bioevaluation for T and B-cell proliferation” (Eur J Med Chem, 2016):

Tests used:
B = assay: Immunosuppressive activity in Balb/c mouse B cells assessed as inhibition of LPS-induced cell proliferation after 48 hrs by MTT assay relative to control; assay type: functional, cell-based
[1] = Immunosuppressive activity in Balb/c mouse B cells assessed as inhibition of LPS-induced cell proliferation at 100 uM after 48 hrs by MTT assay relative to control; assay type: functional
[2] = Immunosuppressive activity in Balb/c mouse T cells assessed as inhibition of ConA-induced cell proliferation at 1 uM after 48 hrs by MTT assay relative to control; assay type: functional
[3] = Immunostimulatory activity in Balb/c mouse T cells assessed as induction of ConA-induced cell proliferation at 10 uM after 48 hrs by MTT assay relative to control; assay type: cell-based
Mus musculus [4] = species: Mus musculus; assay: Cytotoxicity against Balb/c mouse T cells assessed as decrease in cell viability at 1 uM after 48 hrs by MTT assay; assay type: toxicity, cell-based
Mus musculus [5] = species: Mus musculus; assay: Cytotoxicity against Balb/c mouse B cells assessed as decrease in cell viability at 100 uM after 48 hrs by MTT assay; assay type: toxicity, cell-based
[6] = Immunosuppressive activity in Balb/c mouse B cells assessed as inhibition of LPS-induced cell proliferation at 10 uM after 48 hrs by MTT assay relative to control; assay type: functional
[7] = Immunosuppressive activity in Balb/c mouse T cells assessed as inhibition of ConA-induced cell proliferation at 100 uM after 48 hrs by MTT assay relative to control; assay type: functional
T-cell = assay: Immunosuppressive activity in Balb/c mouse T cells assessed as inhibition of ConA-induced cell proliferation after 48 hrs by MTT assay relative to control; assay type: functional, cell-based
[8] = Immunosuppressive activity in Balb/c mouse B cells assessed as inhibition of LPS-induced cell proliferation at 1 uM after 48 hrs by MTT assay relative to control; assay type: functional
Mus musculus [9] = species: Mus musculus; assay: Cytotoxicity against Balb/c mouse B cells assessed as decrease in cell viability at 1 uM after 48 hrs by MTT assay; assay type: toxicity, cell-based
Mus musculus [10] = species: Mus musculus; assay: Cytotoxicity against Balb/c mouse T cells assessed as decrease in cell viability at 100 uM after 48 hrs by MTT assay; assay type: toxicity, cell-based
Mus musculus [11] = species: Mus musculus; assay: Cytotoxicity against Balb/c mouse T cells assessed as decrease in cell viability at 10 uM after 48 hrs by MTT assay; assay type: toxicity, cell-based
Mus musculus [12] = species: Mus musculus; assay: Cytotoxicity against Balb/c mouse B cells assessed as decrease in cell viability at 10 uM after 48 hrs by MTT assay; assay type: toxicity, cell-based
[13] = Immunosuppressive activity in Balb/c mouse T cells assessed as inhibition of ConA-induced cell proliferation at 10 uM after 48 hrs by MTT assay relative to control; assay type: functional
[14] = Immunostimulatory activity in Balb/c mouse B cells assessed as induction of LPS-induced cell proliferation at 1 uM after 48 hrs by MTT assay relative to control; assay type: cell-based
[15] = Immunostimulatory activity in Balb/c mouse T cells assessed as induction of ConA-induced cell proliferation at 1 uM after 48 hrs by MTT assay relative to control; assay type: cell-based

| SMILES | inhibition (B) | inhibition at 100 µM [1] | inhibition at 1 µM [2] | Activity [3] | Activity (Mus musculus [4]) | Activity (Mus musculus [5]) | inhibition at 10 µM [6] | inhibition at 100 µM [7] | inhibition (T-cell) | inhibition at 1 µM [8] | Activity (Mus musculus [9]) | Activity (Mus musculus [10]) | Activity (Mus musculus [11]) | Activity (Mus musculus [12]) | inhibition at 10 µM [13] | Activity [14] | Activity [15] |
| --- | --- | --- | --- | --- | --- | --- | --- | --- | --- | --- | --- | --- | --- | --- | --- | --- | --- |
| CC(=O)Oc1cc(C)c2c(c1C)C[C@H]([C@@H](C)C(=O)OCc1cn(-c3ccc4c(c3)OCO4)nn1)CC2 | Dose-dependent effect | 22.3% | 27.8% | 16.66% | Non-Toxic | Non-Toxic | 33.9% | 32.4% | Dose-dependent effect | 40.6% | Non-Toxic | Non-Toxic | Toxic | Toxic | – | – | – |
| CC1=C2[C@H]3OC(=O)[C@@H](C)[C@@H]3CC[C@@]2(C)C=CC1=O [SANTONIN] | Dose-dependent effect | 37.6% | 39.4% | 3.66% | Non-Toxic | Non-Toxic | 26.8% | 6.09% | Dose-dependent effect | 21.1% | Non-Toxic | Non-Toxic | Non-Toxic | Non-Toxic | – | – | – |
| CC(=O)Oc1cc(C)c2c(c1C)C[C@H]([C@@H](C)C(=O)OCc1cn(-c3ccc(Cl)nc3)nn1)CC2 | Dose-dependent effect | 33.7% | 17.6% | – | Non-Toxic | Non-Toxic | 24% | 1.85% | Dose-dependent effect | – | Non-Toxic | Non-Toxic | Toxic | Toxic | 17.6% | 9.71% | – |
| COc1ccc(-n2cc(COC(=O)[C@H](C)[C@@H]3CCc4c(C)cc(OC(C)=O)c(C)c4C3)nn2)cc1 | Dose-dependent effect | 15.4% | 33.8% | – | Toxic | Toxic | 36.8% | 30.1% | Dose-dependent effect | 42.3% | Toxic | Toxic | Non-Toxic | Non-Toxic | 36% | – | – |
| CC(=O)Oc1cc(C)c2c(c1C)C[C@H]([C@@H](C)C(=O)OCc1cn(-c3ccccc3Cl)nn1)CC2 | Dose-dependent effect | 37.7% | 5.55% | – | Toxic | Toxic | 30.3% | 30.6% | Dose-dependent effect | 33.7% | Toxic | Toxic | Toxic | Toxic | 17.6% | – | – |
| CC(=O)Oc1cc(C)c2c(c1C)C[C@H]([C@@H](C)C(=O)OCc1cn(Cc3ccc(Br)cc3)nn1)CC2 | Dose-dependent effect | 38.7% | – | – | Non-Toxic | Toxic | 34.1% | 37.4% | Dose-dependent effect | – | Non-Toxic | Toxic | Toxic | Toxic | 33.9% | 19.71% | 14.15% |
| CC(=O)Oc1cc(C)c2c(c1C)C[C@H]([C@@H](C)C(=O)OCc1cn(-c3ccccc3C#N)nn1)CC2 | Dose-dependent effect | 25.1% | – | – | Toxic | Toxic | 26.3% | 6.48% | Dose-dependent effect | 40% | Toxic | Toxic | Toxic | Toxic | 4.62% | – | 12.96% |
| CC(=O)Oc1cc(C)c2c(c1C)C[C@H]([C@@H](C)C(=O)OCc1cn(-c3ccccc3F)nn1)CC2 | Dose-dependent effect | 39.6% | 53.7% | – | Non-Toxic | Non-Toxic | 34.6% | 5.88% | Dose-dependent effect | 50.5% | Non-Toxic | Non-Toxic | Non-Toxic | Non-Toxic | 11.8% | – | – |
| CC(=O)Oc1cc(C)c2c(c1C)C[C@H]([C@@H](C)C(=O)OCc1cn(Cc3ccccc3)nn1)CC2 | Dose-dependent effect | 32.3% | 33% | – | Non-Toxic | Toxic | 33.5% | 44% | Dose-dependent effect | 48.6% | Non-Toxic | Toxic | Non-Toxic | Non-Toxic | 39.2% | – | – |
| CC(=O)Oc1cc(C)c2c(c1C)C[C@H]([C@@H](C)C(=O)OCc1cn(-c3ccc(Cl)cc3)nn1)CC2 | Dose-dependent effect | 34.3% | 37% | – | Toxic | Toxic | 25.1% | 13% | Dose-dependent effect | 34.3% | Toxic | Toxic | Non-Toxic | Non-Toxic | 28.7% | – | – |
| C#CCOC(=O)[C@H](C)[C@@H]1CCc2c(C)cc(OC(C)=O)c(C)c2C1 | Dose-dependent effect | 69.7% | 41.7% | – | Non-Toxic | Non-Toxic | 59.3% | 71.5% | Dose-dependent effect | 57.8% | Non-Toxic | Non-Toxic | Toxic | Toxic | 51.2% | – | – |
| CC(=O)Oc1cc(C)c2c(c1C)[C@@H]1OC(=O)[C@@H](C)[C@@H]1CC2 | Dose-dependent effect | 70% | 47.7% | – | Toxic | Non-Toxic | 44.3% | 75% | Dose-dependent effect | 61.8% | Toxic | Non-Toxic | Toxic | Toxic | 49.2% | – | – |
| CC(=O)Oc1cc(C)c2c(c1C)C[C@H]([C@@H](C)C(=O)OCc1cn(-c3ccc(O)cc3C)nn1)CC2 | Dose-dependent effect | 79.7% | 22.7% | 1.33% | Non-Toxic | Toxic | 77.1% | 54.7% | Dose-dependent effect | 68.8% | Non-Toxic | Toxic | Non-Toxic | Non-Toxic | – | – | – |
| CC(=O)Oc1cc(C)c2c(c1C)C[C@H]([C@@H](C)C(=O)OCc1cn(-c3ccc(O)cc3)nn1)CC2 | Dose-dependent effect | 29.7% | 33.3% | – | Non-Toxic | Toxic | 26.3% | 17.6% | Dose-dependent effect | 36.6% | Non-Toxic | Toxic | Toxic | Toxic | 5.55% | – | – |
